Patent publication US20250339569A1, “CARBONIC ANHYDRASE IX LIGANDS” (priority 2021, published 2025)
Starred links: 1 amine or outer side, 2 acyl side, 3 side chain; linkers in the order of their positions; H or OH if unused. Positions of bridges follow the written chain, without caps; N, C: chain ends. Non-standard residues stand in square brackets, D forms with d. Residues, ends and D or L forms follow the SMILES beside them. *: point of attachment. Phe(3-NHCO(CH2)3SO2NH2) = N[C@@H](Cc1cccc(NC(=O)CCCS(N)(=O)=O)c1)C(=O)O; X23 = NS(=O)(=O)c1cccc(C(=O)Nc2cccc(C[C@H](N[*:1])C(=O)[*:2])c2)c1; X24 = NS(=O)(=O)c1ccc(C(=O)Nc2cccc(C[C@H](N[*:1])C(=O)[*:2])c2)cc1; X10 = NS(=O)(=O)c1cc(C(=O)Nc2cccc(C[C@H](N[*:1])C(=O)[*:2])c2)cs1; X11 = NS(=O)(=O)c1ccc(C(=O)Nc2cccc(C[C@H](N[*:1])C(=O)[*:2])c2)s1; X21 = NS(=O)(=O)CCC(=O)Nc1cccc(C[C@H](N[*:1])C(=O)[*:2])c1; DOTA = O=C(O)CN1CCN(CC(=O)O)CCN(CC(=O)*)CCN(CC(=O)O)CC1; Phe(3-CF3) = N[C@@H](Cc1cccc(C(F)(F)F)c1)C(=O)O; X7 = O=C([C@H](Cc1cccc(N[*:3])c1)N[*:1])[*:2]; Phe(4-NH2) = Nc1ccc(C[C@H](N)C(=O)O)cc1; mXylylene = c1cc(C[*:1])cc(C[*:2])c1; X36 = NS(=O)(=O)Cc1ccc(C(=O)*)cc1; X2 = O=C(CN1CCC(N[*:1])CC1)[*:2]; X26 = NS(=O)(=O)c1cccc(C(=O)*)c1; X17 = NS(=O)(=O)c1cc(C(=O)*)cs1; X27 = NS(=O)(=O)c1ccc(C(=O)*)s1; X39 = NS(=O)(=O)c1ccc(N*)cc1; X41 = NS(=O)(=O)c1cccc(N*)c1; Dap = NC[C@H](N)C(=O)O

Key:
[1] = molecular target: T1, human carbonic anhydrase IX (hCAIX-Fc) (Homo sapiens, UniProt Q16790); experiment: Surface plasmon resonance assay with hCAIX-Fc; type: binding; details: 25° C.; for t1/2 category (activity): SPR dissociation half-life, hCAIX-Fc; for Kd: SPR, hCAIX-Fc captured, read-out: pKD category (activity) (converted)
T1 construct: purchased SinoBliological (Sino Biological) 10107-H02H

[2] = molecular target: T2, CAIX-expressing human HT-29 colorectal cancer cells (Homo sapiens, UniProt Q16790); experiment: FACS binding assay (IC50 determination, competition with tracer 3BP-2776 or 3BP-4149); details: FACS binding assay, HT-29 cells, competition with tracer 3BP-4149 (3 nM, Cy5-labeled), 4° C., 1 hour; read-out: pIC50 category (activity) (converted)
T2 construct: CAIX-expressing human HT-29 colorectal cancer cells; host or cells: HT-29 human colorectal cancer cells
How it was run: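 HT-29 cells in FACS buffer (PBS, 1% FCS) at 500.000 cells/ml were exposed to compounds competing with a labelled tracer, with biotinylated compounds detected by 1 μg/mL APC-streptavidin for 30 min on ice. APC/Cy5 median fluorescence was read by flow cytometry and IC50 derived by 4PL fit.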

t1/2 category (activity) [1]	Kd [1]	IC50 [2]	SMILES
A (t1/2>15.0 minutes)	< 10 nM	< 10 nM	CC(C)C[C@@H]1NC(=O)[C@H](Cc2cccc(NC(=O)c3csc(S(N)(=O)=O)c3)c2)NC(=O)[C@H](CC(=O)O)NC(=O)[C@H]2CCCN2C(=O)[C@H](CCC(=O)O)NC(=O)[C@@H](NC(=O)[C@H](Cc2ccc(O)cc2)NC(=O)[C@@H](NC(=O)CN2CCC(NC(=O)CN3CCN(CC(=O)O)CCN(CC(=O)O)CCN(CC(=O)O)CC3)CC2)C(C)C)CSCc2cccc(c2)CSC[C@@H](C(N)=O)NC(=O)[C@H](CO)NC(=O)[C@H](Cc2c[nH]c3ccccc23)NC(=O)[C@H]([C@@H](C)O)NC1=O [3BP-4412] ({DOTA}-[X2]VYCE[dP]D[X10]LTWSC-NH2; linker 4-13 via mXylylene)
A (t1/2>15.0 minutes)	< 10 nM	< 10 nM	CC(C)C[C@@H]1NC(=O)[C@H](Cc2cccc(NC(=O)c3ccc(S(N)(=O)=O)s3)c2)NC(=O)[C@H](CC(=O)O)NC(=O)[C@H]2CCCN2C(=O)[C@H](CCC(=O)O)NC(=O)[C@@H](NC(=O)[C@H](Cc2ccc(O)cc2)NC(=O)[C@@H](NC(=O)CN2CCC(NC(=O)CN3CCN(CC(=O)O)CCN(CC(=O)O)CCN(CC(=O)O)CC3)CC2)C(C)C)CSCc2cccc(c2)CSC[C@@H](C(N)=O)NC(=O)[C@H](CO)NC(=O)[C@H](Cc2c[nH]c3ccccc23)NC(=O)[C@H]([C@@H](C)O)NC1=O [3BP-4413] ({DOTA}-[X2]VYCE[dP]D[X11]LTWSC-NH2; linker 4-13 via mXylylene)
B (t1/2 between 5.1 and 15.0 minutes)	< 10 nM	< 10 nM	CC(C)C[C@@H]1NC(=O)[C@H](Cc2cccc(C(F)(F)F)c2)NC(=O)[C@H](CC(=O)O)NC(=O)[C@H]2CCCN2C(=O)[C@H](CCC(=O)O)NC(=O)[C@@H]2CSCc3cccc(c3)CSC[C@@H](C(N)=O)NC(=O)[C@H](CNC(=O)C[C@H](NC(=O)[C@@H](NC(=O)CN3CCC(NC(=O)CN4CCN(CC(=O)O)CCN(CC(=O)O)CCN(CC(=O)O)CC4)CC3)C(C)C)C(=O)N2)NC(=O)[C@H](Cc2c[nH]c3ccccc23)NC(=O)[C@H]([C@@H](C)O)NC1=O [3BP-4440] ({DOTA}-[X2]VDCE[dP]D[Phe(3-CF3)]LTW[Dap]C-NH2; lactam 3-12; linker 4-13 via mXylylene)
A (t1/2>15.0 minutes)	< 10 nM	10 to 79.4 nM	CC(C)C[C@@H]1NC(=O)[C@H](Cc2c[nH]c3ccccc23)NC(=O)[C@H](CCC(=O)Nc2cccc(S(N)(=O)=O)c2)NC(=O)[C@H]2CCCN2C(=O)[C@H](CCC(=O)O)NC(=O)[C@@H](NC(=O)[C@H](Cc2ccc(O)cc2)NC(=O)[C@@H](NC(=O)CN2CCC(NC(=O)CN3CCN(CC(=O)O)CCN(CC(=O)O)CCN(CC(=O)O)CC3)CC2)C(C)C)CSCc2cccc(c2)CSC[C@@H](C(N)=O)NC(=O)[C@H](CO)NC(=O)[C@H](Cc2c[nH]c3ccccc23)NC(=O)[C@H]([C@@H](C)O)NC1=O [3BP-4441] ({DOTA}-[X2]VYCE[dP]E(X41)WLTWSC-NH2; linker 4-13 via mXylylene)
A (t1/2>15.0 minutes)	< 10 nM	10 to 79.4 nM	CC(C)C[C@@H]1NC(=O)[C@H](Cc2c[nH]c3ccccc23)NC(=O)[C@H](CCC(=O)Nc2ccc(S(N)(=O)=O)cc2)NC(=O)[C@H]2CCCN2C(=O)[C@H](CCC(=O)O)NC(=O)[C@@H](NC(=O)[C@H](Cc2ccc(O)cc2)NC(=O)[C@@H](NC(=O)CN2CCC(NC(=O)CN3CCN(CC(=O)O)CCN(CC(=O)O)CCN(CC(=O)O)CC3)CC2)C(C)C)CSCc2cccc(c2)CSC[C@@H](C(N)=O)NC(=O)[C@H](CO)NC(=O)[C@H](Cc2c[nH]c3ccccc23)NC(=O)[C@H]([C@@H](C)O)NC1=O [3BP-4442] ({DOTA}-[X2]VYCE[dP]E(X39)WLTWSC-NH2; linker 4-13 via mXylylene)
A (t1/2>15.0 minutes)	< 10 nM	< 10 nM	CC(C)C[C@@H]1NC(=O)[C@H](Cc2cccc(NC(=O)CCCS(N)(=O)=O)c2)NC(=O)[C@H](CC(=O)O)NC(=O)[C@H]2CCCN2C(=O)[C@H](CCC(=O)O)NC(=O)[C@@H]2CSCc3cccc(c3)CSC[C@@H](C(N)=O)NC(=O)[C@H](CNC(=O)C[C@H](NC(=O)[C@@H](NC(=O)CN3CCC(NC(=O)CN4CCN(CC(=O)O)CCN(CC(=O)O)CCN(CC(=O)O)CC4)CC3)C(C)C)C(=O)N2)NC(=O)[C@H](Cc2c[nH]c3ccccc23)NC(=O)[C@H]([C@@H](C)O)NC1=O [3BP-4445] ({DOTA}-[X2]VDCE[dP]D[Phe(3-NHCO(CH2)3SO2NH2)]LTW[Dap]C-NH2; lactam 3-12; linker 4-13 via mXylylene)

The remaining lines, values behind:

SMILES	t1/2 category (activity) [1]	Kd [1]	IC50 [2]
CC(C)C[C@@H]1NC(=O)[C@H](Cc2ccc(NC(=O)c3csc(S(N)(=O)=O)c3)cc2)NC(=O)[C@H](CC(=O)O)NC(=O)[C@H]2CCCN2C(=O)[C@H](CCC(=O)O)NC(=O)[C@@H](NC(=O)[C@H](Cc2ccc(O)cc2)NC(=O)[C@@H](NC(=O)CN2CCC(NC(=O)CN3CCN(CC(=O)O)CCN(CC(=O)O)CCN(CC(=O)O)CC3)CC2)C(C)C)CSCc2cccc(c2)CSC[C@@H](C(N)=O)NC(=O)[C@H](CO)NC(=O)[C@H](Cc2c[nH]c3ccccc23)NC(=O)[C@H]([C@@H](C)O)NC1=O [3BP-4401] ({DOTA}-[X2]VYCE[dP]D[Phe(4-NH2)](X17)LTWSC-NH2; linker 4-13 via mXylylene)	A (t1/2>15.0 minutes)	< 10 nM	< 10 nM
CC(C)C[C@@H]1NC(=O)[C@H](Cc2ccc(NC(=O)c3ccc(S(N)(=O)=O)s3)cc2)NC(=O)[C@H](CC(=O)O)NC(=O)[C@H]2CCCN2C(=O)[C@H](CCC(=O)O)NC(=O)[C@@H](NC(=O)[C@H](Cc2ccc(O)cc2)NC(=O)[C@@H](NC(=O)CN2CCC(NC(=O)CN3CCN(CC(=O)O)CCN(CC(=O)O)CCN(CC(=O)O)CC3)CC2)C(C)C)CSCc2cccc(c2)CSC[C@@H](C(N)=O)NC(=O)[C@H](CO)NC(=O)[C@H](Cc2c[nH]c3ccccc23)NC(=O)[C@H]([C@@H](C)O)NC1=O [3BP-4402] ({DOTA}-[X2]VYCE[dP]D[Phe(4-NH2)](X27)LTWSC-NH2; linker 4-13 via mXylylene)	A (t1/2>15.0 minutes)	< 10 nM	< 10 nM
CC(C)C[C@@H]1NC(=O)[C@H](Cc2cccc(NC(=O)c3ccc(S(N)(=O)=O)cc3)c2)NC(=O)[C@H](CC(=O)O)NC(=O)[C@H]2CCCN2C(=O)[C@H](CCC(=O)O)NC(=O)[C@@H](NC(=O)[C@H](Cc2ccc(O)cc2)NC(=O)[C@@H](NC(=O)CN2CCC(NC(=O)CN3CCN(CC(=O)O)CCN(CC(=O)O)CCN(CC(=O)O)CC3)CC2)C(C)C)CSCc2cccc(c2)CSC[C@@H](C(N)=O)NC(=O)[C@H](CO)NC(=O)[C@H](Cc2c[nH]c3ccccc23)NC(=O)[C@H]([C@@H](C)O)NC1=O [3BP-4405] ({DOTA}-[X2]VYCE[dP]D[X24]LTWSC-NH2; linker 4-13 via mXylylene)	A (t1/2>15.0 minutes)	< 10 nM	< 10 nM
CC(C)C[C@@H]1NC(=O)[C@H](Cc2cccc(NC(=O)c3ccc(CS(N)(=O)=O)cc3)c2)NC(=O)[C@H](CC(=O)O)NC(=O)[C@H]2CCCN2C(=O)[C@H](CCC(=O)O)NC(=O)[C@@H](NC(=O)[C@H](Cc2ccc(O)cc2)NC(=O)[C@@H](NC(=O)CN2CCC(NC(=O)CN3CCN(CC(=O)O)CCN(CC(=O)O)CCN(CC(=O)O)CC3)CC2)C(C)C)CSCc2cccc(c2)CSC[C@@H](C(N)=O)NC(=O)[C@H](CO)NC(=O)[C@H](Cc2c[nH]c3ccccc23)NC(=O)[C@H]([C@@H](C)O)NC1=O [3BP-4406] ({DOTA}-[X2]VYCE[dP]D[X7](X36)LTWSC-NH2; linker 4-13 via mXylylene)	A (t1/2>15.0 minutes)	< 10 nM	< 10 nM
CC(C)C[C@@H]1NC(=O)[C@H](Cc2cccc(NC(=O)CCS(N)(=O)=O)c2)NC(=O)[C@H](CC(=O)O)NC(=O)[C@H]2CCCN2C(=O)[C@H](CCC(=O)O)NC(=O)[C@@H](NC(=O)[C@H](Cc2ccc(O)cc2)NC(=O)[C@@H](NC(=O)CN2CCC(NC(=O)CN3CCN(CC(=O)O)CCN(CC(=O)O)CCN(CC(=O)O)CC3)CC2)C(C)C)CSCc2cccc(c2)CSC[C@@H](C(N)=O)NC(=O)[C@H](CO)NC(=O)[C@H](Cc2c[nH]c3ccccc23)NC(=O)[C@H]([C@@H](C)O)NC1=O [3BP-4407] ({DOTA}-[X2]VYCE[dP]D[X21]LTWSC-NH2; linker 4-13 via mXylylene)	A (t1/2>15.0 minutes)	< 10 nM	< 10 nM
CC(C)C[C@@H]1NC(=O)[C@H](Cc2ccc(NC(=O)c3cccc(S(N)(=O)=O)c3)cc2)NC(=O)[C@H](CC(=O)O)NC(=O)[C@H]2CCCN2C(=O)[C@H](CCC(=O)O)NC(=O)[C@@H](NC(=O)[C@H](Cc2ccc(O)cc2)NC(=O)[C@@H](NC(=O)CN2CCC(NC(=O)CN3CCN(CC(=O)O)CCN(CC(=O)O)CCN(CC(=O)O)CC3)CC2)C(C)C)CSCc2cccc(c2)CSC[C@@H](C(N)=O)NC(=O)[C@H](CO)NC(=O)[C@H](Cc2c[nH]c3ccccc23)NC(=O)[C@H]([C@@H](C)O)NC1=O [3BP-4408] ({DOTA}-[X2]VYCE[dP]D[Phe(4-NH2)](X26)LTWSC-NH2; linker 4-13 via mXylylene)	A (t1/2>15.0 minutes)	< 10 nM	< 10 nM
CC(C)C[C@@H]1NC(=O)[C@H](Cc2cccc(NC(=O)c3cccc(S(N)(=O)=O)c3)c2)NC(=O)[C@H](CC(=O)O)NC(=O)[C@H]2CCCN2C(=O)[C@H](CCC(=O)O)NC(=O)[C@@H](NC(=O)[C@H](Cc2ccc(O)cc2)NC(=O)[C@@H](NC(=O)CN2CCC(NC(=O)CN3CCN(CC(=O)O)CCN(CC(=O)O)CCN(CC(=O)O)CC3)CC2)C(C)C)CSCc2cccc(c2)CSC[C@@H](C(N)=O)NC(=O)[C@H](CO)NC(=O)[C@H](Cc2c[nH]c3ccccc23)NC(=O)[C@H]([C@@H](C)O)NC1=O [3BP-4409] ({DOTA}-[X2]VYCE[dP]D[X23]LTWSC-NH2; linker 4-13 via mXylylene)	A (t1/2>15.0 minutes)	< 10 nM	< 10 nM
